Earlier results in patent US12409121B2, “Formulations and methods for preparing stable cosmetic compositions” (Spinart, LLC, priority 2019, dated 2025).

- α-CO2H pKa1 (carboxylic group): 2.18
- α-NH3 pKa2 (α-amino group): 9.09
SMILES: N=C(N)NCCCC(N)C(=O)O (centres unmarked) [Arginine]
